In BindingDB's records for doi:10.1021/acs.jmedchem.1c01655 (University of California San Diego, 2022):

Target: T1, Carboxy-terminal domain RNA polymerase II polypeptide A small phosphatase 1 (Homo sapiens, UniProt Q9GZU7)
T1 sequence (Q9GZU7 whole entry): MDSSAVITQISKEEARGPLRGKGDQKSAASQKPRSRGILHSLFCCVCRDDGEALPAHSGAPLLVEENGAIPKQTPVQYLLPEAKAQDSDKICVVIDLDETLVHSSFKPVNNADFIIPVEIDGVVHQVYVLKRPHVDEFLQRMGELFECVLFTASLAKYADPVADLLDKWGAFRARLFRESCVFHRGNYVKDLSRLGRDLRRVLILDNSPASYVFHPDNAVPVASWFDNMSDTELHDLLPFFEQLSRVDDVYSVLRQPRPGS
Test: Inhibition of wild type human SCP1 using pNPP as substrate incubated for 0.5 to 18 hrs followed by substrate addition by absorbance based analysis

IC50: 220 µM
SMILES: O=C(C1=CC2=C(CCC2)S1(=O)=O)N1CCN(S(=O)(=O)c2ccc(F)cc2)CC1
